This is an account of results in patent publication US20090304803A1, “Compositions and methods relating to target-specific photodynamic therapy” (The General Hospital Corporation, priority 2005, published 2009).

One data set deals with T1, ErbB3 receptor (Homo sapiens, UniProt P21860).
T1 construct: endogenous in cells; host or cells: OVCAR3 (target); PA-1 (non-expressing control)
The data set can be described thus: ErbB3-specific aptamer localization in target and non-target cells, confocal microscopy. The format is cell-based. Conditions: 2 uM, 15 minutes at 4° C. then 20 minutes at 37° C. The method, then:
Both ErbB3-expressing cells (OVCAR3) and non-expressing cells (PA-1) were incubated with the ErbB3-specific aptamer and the cells were imaged using a confocal microscope. OVCAR3 (target) and PA-1 (non-target) cells were incubated with 2 uM ErbB3 specific aptamer (tagged on the 5′ end with Fluoroscein) for 15 minutes at 4° C. and then for 20 minutes at 37° C. The cells were then imaged using a confocal laser scanning microscope with 488 nm excitation. The fluorescence was collected using a 515 nm long pass filter.

The next data set has as its system HER2. Conditions: cited from earlier work.
Another data set relates to MCF7 cells. Particulars: cited from earlier work.
The conditions of data set [1]: water; cited from earlier work.

T1 sequence (P21860 20-1342): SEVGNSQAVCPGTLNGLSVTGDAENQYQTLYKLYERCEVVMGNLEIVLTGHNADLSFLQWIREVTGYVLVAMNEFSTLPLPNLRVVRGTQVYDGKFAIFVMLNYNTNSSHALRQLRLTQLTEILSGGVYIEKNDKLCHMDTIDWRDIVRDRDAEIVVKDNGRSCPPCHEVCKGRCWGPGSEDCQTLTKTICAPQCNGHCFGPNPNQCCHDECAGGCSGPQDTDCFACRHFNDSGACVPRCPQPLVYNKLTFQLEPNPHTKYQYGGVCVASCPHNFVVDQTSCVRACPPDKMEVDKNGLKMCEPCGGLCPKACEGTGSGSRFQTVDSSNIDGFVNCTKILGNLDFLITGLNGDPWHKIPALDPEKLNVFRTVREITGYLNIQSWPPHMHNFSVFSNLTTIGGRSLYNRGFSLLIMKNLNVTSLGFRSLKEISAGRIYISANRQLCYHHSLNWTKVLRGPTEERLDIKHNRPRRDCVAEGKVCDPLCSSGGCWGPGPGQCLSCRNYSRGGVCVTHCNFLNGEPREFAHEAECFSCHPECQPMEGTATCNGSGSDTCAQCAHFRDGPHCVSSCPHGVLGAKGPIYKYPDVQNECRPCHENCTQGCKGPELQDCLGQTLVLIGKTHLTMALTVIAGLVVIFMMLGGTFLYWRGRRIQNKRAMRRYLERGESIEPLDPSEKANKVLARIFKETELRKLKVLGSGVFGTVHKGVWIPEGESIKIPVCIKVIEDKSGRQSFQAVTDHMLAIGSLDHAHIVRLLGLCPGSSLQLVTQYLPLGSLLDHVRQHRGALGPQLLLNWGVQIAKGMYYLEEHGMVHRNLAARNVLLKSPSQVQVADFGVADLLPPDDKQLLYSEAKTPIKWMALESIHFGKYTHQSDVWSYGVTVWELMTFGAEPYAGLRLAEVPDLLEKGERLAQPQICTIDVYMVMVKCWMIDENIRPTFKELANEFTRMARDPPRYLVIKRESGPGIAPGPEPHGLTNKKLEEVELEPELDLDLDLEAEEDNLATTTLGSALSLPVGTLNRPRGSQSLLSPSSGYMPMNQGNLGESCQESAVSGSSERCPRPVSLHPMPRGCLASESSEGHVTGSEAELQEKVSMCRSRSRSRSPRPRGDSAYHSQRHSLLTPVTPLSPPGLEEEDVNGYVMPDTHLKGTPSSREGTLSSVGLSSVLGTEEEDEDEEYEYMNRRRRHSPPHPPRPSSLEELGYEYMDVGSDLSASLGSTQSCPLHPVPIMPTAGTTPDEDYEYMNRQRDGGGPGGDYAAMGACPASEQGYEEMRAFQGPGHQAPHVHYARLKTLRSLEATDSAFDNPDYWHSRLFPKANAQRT

Consider “ErbB3-specific aptamer: aptamer that recognizes the ErbB3 receptor, sequence from Chen et al., PNAS 2003; labeled at 5′ end with Fluoroscein (DNA CAGCGAAAGUUGCGUAUGGGUCACAUCGCAGGCACAUGUCAUCUGGGCG; 5' fluorescein label, chemistry of the aptamer otherwise not given here)”, for which the “aptamer localization, OVCAR3 (target) versus PA-1 (non-target)” value in the data set with ErbB3 receptor is “localized specifically to the OVCAR3 cell line”. Also, in the data set with HER2, the “hrg-dependent tyrosine phosphorylation of HER2” value is reported as “inhibited”. Besides, in the data set with MCF7 cells, the “hrg-induced growth response of MCF7 cells” value is recorded as “inhibited”.
Regarding “chlorin e6 monoethylendiamine monamide [CMA]”, in data set [1], the solubility entry is given as “soluble in water”.
